PubChem BioAssay (NCI)
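Tested at 5 concentrations; 48 h exposure; 96-well plates; endpoints linearly interpolated, else capped at highest concentration. TGI: concentration producing complete growth inhibition.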

Key:
Experiment in all cases: growth of human tumour cells (NCI), 48 h
CAKI-1 renal = system: CAKI-1 renal
COLO 205 colon = system: COLO 205 colon
HCT-116 colon = system: HCT-116 colon
M14 melanoma = system: M14 melanoma
MALME-3M melanoma = system: MALME-3M melanoma
MCF7 breast = system: MCF7 breast
NCI-H460 lung = system: NCI-H460 lung
NCI/ADR-RES ovarian = system: NCI/ADR-RES ovarian
OVCAR-4 ovarian = system: OVCAR-4 ovarian
OVCAR-8 ovarian = system: OVCAR-8 ovarian
SF-295 CNS = system: SF-295 CNS
SF-539 CNS = system: SF-539 CNS
SK-MEL-28 melanoma = system: SK-MEL-28 melanoma
SK-MEL-5 melanoma = system: SK-MEL-5 melanoma
SK-OV-3 ovarian = system: SK-OV-3 ovarian
SNB-19 CNS = system: SNB-19 CNS
SNB-75 CNS = system: SNB-75 CNS
SW-620 colon = system: SW-620 colon
UACC-257 melanoma = system: UACC-257 melanoma
UO-31 renal = system: UO-31 renal

SMILES | TGI (CAKI-1 renal) [µM] | TGI (COLO 205 colon) [µM] | TGI (HCT-116 colon) [µM] | TGI (M14 melanoma) [µM] | TGI (MALME-3M melanoma) [µM] | TGI (MCF7 breast) [µM] | TGI (NCI-H460 lung) [µM] | TGI (NCI/ADR-RES ovarian) [µM] | TGI (OVCAR-4 ovarian) [µM] | TGI (OVCAR-8 ovarian) [µM] | TGI (SF-295 CNS) [µM] | TGI (SF-539 CNS) [µM] | TGI (SK-MEL-28 melanoma) [µM] | TGI (SK-MEL-5 melanoma) [µM] | TGI (SK-OV-3 ovarian) [µM] | TGI (SNB-19 CNS) [µM] | TGI (SNB-75 CNS) [µM] | TGI (SW-620 colon) [µM] | TGI (UACC-257 melanoma) [µM] | TGI (UO-31 renal) [µM]
O=C(O)C/C(=C\c1ccccc1)C(=O)O | > 100 | > 100 | > 100 | > 100 | > 100 | > 100 | > 100 | > 100 | > 100 | > 100 | > 100 | > 100 | > 100 | > 100 | > 100 | > 100 | > 100 | > 100 | > 100 | > 100
O=C1C(N=Nc2ccc(-c3nc4ccccc4o3)cc2)NC(=S)N1c1ccccc1 (stereo not given) | > 100 | > 100 | > 100 | > 100 | > 100 | > 100 | > 100 | > 100 | > 100 | > 100 | > 100 | > 100 | > 100 | > 100 | > 100 | > 100 | > 100 | > 100 | > 100 | > 100
CCCCCCCC(=O)N/N=C/c1ccc(Sc2nccn2C)c([N+](=O)[O-])c1 | 72.1 | 27.5 | 28.5 | 27.7 | 29 | 38.2 | 30.5 | 48.9 | 58.3 | 37.4 | 33.9 | 34 | 27.3 | 26.1 | > 100 | 87 | 39 | 32.8 | 26.9 | 22.7
COc1ccc(/C=C(\NC(=O)c2ccccc2)C(=O)NN(C)c2ccnc3cc(Cl)ccc23)cc1OC | 90.6 | 61 | > 100 | 47.9 | 72.5 | 46.3 | 39.3 | 43.8 | 90.5 | 46.8 | 97.1 | 46.5 | 58.1 | 88.3 | > 100 | > 100 | > 100 | 51.3 | 79.1 | 80.4
NC1=Nc2ccccc2Sc2nnc(-c3ccc(Cl)cc3)n21 | > 100 | > 100 | > 100 | > 100 | > 100 | > 100 | > 100 | > 100 | > 100 | > 100 | > 100 | > 100 | > 100 | > 100 | > 100 | > 100 | > 100 | > 100 | > 100 | > 100
CN(C)c1ccc(/C=C/c2cc[n+](C)c3ccccc23)cc1 | 12.2 | 3.2 | 8.62 | 15.8 | 17.1 | 7.75 | 14.3 | > 100 | 21.4 | 10.1 | > 43.2 | 18.7 | 21.9 | 6.21 | 27 | 16.5 | 12.1 | 12.9 | 8.57 | > 73.3
C=C(Br)CN(CC(=C)Br)C(C)=O | > 100 | > 100 | > 100 | > 100 | > 100 | > 100 | > 100 | > 100 | > 100 | > 100 | > 100 | > 100 | > 100 | > 100 | > 100 | > 100 | > 100 | > 100 | > 100 | > 100
CCOC(=O)C1(Cc2c[nH]c3ccccc23)C(O)CCCN1C(C)=O (stereo not given) | > 100 | > 100 | > 100 | > 100 | > 100 | > 100 | > 100 | > 100 | > 100 | > 100 | > 100 | > 100 | > 100 | > 100 | > 100 | > 100 | > 100 | > 100 | > 100 | > 100
O=C1CCc2cc3c(cc21)CC1(Cc2ccccc2C1)C3 | 47.2 | 17.2 | > 46.3 | > 100 | > 100 | > 100 | > 100 | > 60.1 | > 100 | > 100 | > 87.1 | 56.2 | > 100 | 17.8 | > 100 | > 100 | > 60.8 | > 100 | 65.2 | > 100
Cc1ncc([N+](=O)[O-])n1CCNC(=O)CCCn1cnc([N+](=O)[O-])n1 | > 100 | > 100 | > 100 | > 100 | > 100 | > 100 | > 100 | > 100 | > 100 | > 100 | > 100 | > 100 | > 100 | > 100 | > 100 | > 100 | > 100 | > 100 | > 100 | > 100
NCCCc1ccc2oc3ccccc3c2c1 | 29.7 | 32.8 | 29.7 | 30.1 | 34.3 | 34.2 | 34.1 | 46.3 | 38.3 | 57 | 33.2 | 36.9 | 32.9 | 28.5 | 31.3 | 31 | 30.6 | 50.3 | 32.1 | 29.6
Nc1nnc(-c2ccco2)c(-c2ccco2)n1 | > 100 | > 100 | > 100 | > 100 | > 100 | > 100 | > 100 | > 100 | > 100 | > 100 | > 100 | > 100 | > 100 | > 100 | > 100 | > 100 | > 100 | > 100 | > 100 | > 100
Cc1cc(C2(c3cc(C)c(O)c(C(=O)O)c3)OS(=O)(=O)c3ccccc32)cc(C(=O)O)c1O | > 100 | > 100 | > 100 | > 100 | > 100 | > 100 | > 100 | > 100 | > 100 | > 100 | > 100 | > 100 | > 100 | > 100 | > 100 | > 100 | > 100 | > 100 | > 100 | > 100
CCc1cc2c(cc1CCCC(=O)O)CC1(Cc3ccc(C(=O)O)cc3C1)C2 (stereo not given) | > 100 | > 100 | > 100 | > 100 | > 100 | > 100 | > 100 | > 100 | > 100 | > 100 | > 100 | > 100 | > 100 | > 100 | > 100 | > 100 | > 100 | > 100 | > 100 | > 100
NC(N)=NC(N)=Nc1c(F)c(F)c(F)c(F)c1F | > 100 | > 100 | > 100 | 48.4 | > 100 | > 100 | > 100 | > 100 | > 100 | > 100 | > 100 | > 100 | > 100 | > 100 | > 100 | > 100 | > 100 | > 100 | > 100 | > 100
CSc1c(C(=O)Nc2ccc(Cl)cc2)c(N)[nH]c(=O)c1C#N | > 61.1 | 45.8 | 44.3 | > 100 | > 100 | > 78.6 | > 100 | > 76.5 | > 100 | > 88.7 | 83.6 | 68.9 | > 100 | 64.3 | > 100 | > 100 | > 100 | > 100 | > 93.7 | 59
